What was measured:
Conditions in all cases: incubation time: 72 h
[1] = tested on: DU-4475; test: normalised viability (% of control), CellTiter-Blue; higher = more viable cells (about 100 = DMSO control)
Method: (§1)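 DSRT, CellTiter-Blue viability, 72 h incubation. Signal is normalised to DMSO and benzethonium chloride controls. Value is the normalised response at dose 3.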

[2] = tested on: MFM-223; test: as above
Method: as §1

[3] = tested on: CAL-148; test: as above
Method: as §1

[4] = tested on: Hs578T; test: as above
Method: as §1

[5] = tested on: CAL-51; test: as above
Method: as §1

[6] = tested on: CAL-120; test: as above
Method: as §1

[7] = tested on: MDA-MB-436; test: as above
Method: as §1

[8] = tested on: HCC1937; test: as above
Method: as §1

[9] = tested on: CAL-85-1; test: as above
Method: as §1

[10] = tested on: MDA-MB-453; test: as above
Method: as §1

[11] = tested on: BT-549; test: as above
Method: as §1

[12] = tested on: SK-BR-3; test: as above
Method: as §1

[13] = tested on: MDA-MB-231; test: as above
Method: as §1

[14] = tested on: HCC1599; test: as above
Method: as §1

[15] = tested on: MDA-MB-468; test: as above
Method: as §1

[16] = tested on: BT-474; test: as above
Method: as §1

[17] = tested on: HDQ-P1; test: as above
Method: as §1

[18] = tested on: HCC1143; test: as above
Method: as §1

[19] = tested on: MFM-223; test: drug sensitivity score (DSS), CellTiter-Blue viability (DSS (AUC-based score)); higher = stronger viability inhibition; extreme values may be limits of the assay
In short: (§2)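 A 72 h incubation followed seeding of breast cancer cell lines (20 µl suspension) into 384-well plates holding compound in a 5- or 9-concentration series. CellTiter-Blue, 2.5 µl per well, was incubated 2 h at 37 °C, and fluorescence was measured at 560/590 nm. Normalisation on every plate used 0.1 % DMSO and a positive kill control. From the fitted dose-response curve, the area under the curve was taken as the drug sensitivity score.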

[20] = tested on: BT-549; test: as above
In short: as §2

[21] = tested on: DU-4475; test: normalised viability (% of control), CellTiter-Blue; higher = more viable cells (about 100 = DMSO control); remark: listed apart in the source
In short: (§3)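 384-well plates were pre-loaded with compound in 5 µl medium before 20 µl of breast cancer cell suspension was seeded. Following 72 h incubation, 2.5 µl CellTiter-Blue reagent was added for 2 h at 37 °C. Fluorescence was read at 560/590 nm and plates were normalised to vehicle (100) and a positive kill control (0), checked by Z'-factor. Normalised viability is reported at a single listed concentration of the series.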

[22] = tested on: MFM-223; test: as above; remark: listed apart in the source
In short: as §3

[23] = tested on: Hs578T; test: as above; remark: listed apart in the source
In short: as §3

[24] = tested on: CAL-51; test: as above; remark: listed apart in the source
In short: as §3

[25] = tested on: SK-BR-3; test: as above; remark: listed apart in the source
In short: as §3

[26] = tested on: MDA-MB-231; test: as above; remark: listed apart in the source
In short: as §3

[27] = tested on: HCC1599; test: as above; remark: listed apart in the source
In short: as §3

CC[C@@H]1C(=O)N(C)c2cnc(Nc3ccc(C(=O)N[C@H]4CC[C@H](N5CCN(CC6CC6)CC5)CC4)cc3OC)nc2N1C(C)C [Volasertib]
Conditions	normalised viability [%]
[1], 1 nM	124
[2], 10 nM	51.1
[3], 1 nM	98.3
[4], 10 nM	97.3
[5], 1 nM	102
[6], 10 nM	48.5
[7], 10 nM	88.6
[8], 10 nM	70.6
[9], 1 nM	95.3
[10], 1 nM	104
[11], 10 nM	94.5
[12], 10 nM	53.6
[13], 10 nM	92.8
[14], 10 nM	78.5
[15], 10 nM	83.8
[16], 10 nM	55.8
[17], 1 nM	103
[18], 10 nM	77.4
[21], 0.3 nM	98.4
[21], 3 nM	88.2
[21], 10 nM	86.1
[22], 1 nM	88.8
[22], 100 nM	48.9
[22], 1000 nM	56.2
[23], 1 nM	111
[23], 100 nM	40.3
[23], 1000 nM	35.1
[24], 0.3 nM	116
[24], 3 nM	99.8
[24], 10 nM	100
[25], 1 nM	105
[25], 100 nM	20.7
[25], 1000 nM	24.1
[26], 1 nM	114
[26], 100 nM	36.3
[26], 1000 nM	45.9
[27], 1 nM	94.6
[27], 100 nM	86.2
[27], 1000 nM	74

Conditions	drug sensitivity score
[19]	16.9
[20]	12.3

CO[C@H]1C[C@@H]2CC[C@@H](C)[C@@](O)(O2)C(=O)C(=O)N2CCCC[C@H]2C(=O)O[C@H]([C@H](C)C[C@@H]2CC[C@@H](O)[C@H](OC)C2)CC(=O)[C@H](C)/C=C(\C)[C@@H](O)[C@@H](OC)C(=O)[C@H](C)C[C@H](C)/C=C/C=C/C=C/1C [Sirolimus]
Conditions	normalised viability [%]
[1], 1 nM	85.1
[2], 10 nM	49
[3], 1 nM	74.8
[4], 10 nM	58.2
[5], 1 nM	62.6
[6], 10 nM	54.5
[7], 10 nM	82.5
[8], 10 nM	61.5
[9], 1 nM	68.9
[10], 1 nM	54.3
[11], 10 nM	53
[12], 10 nM	59.1
[13], 10 nM	67.7
[14], 10 nM	73.8
[15], 10 nM	65.4
[16], 10 nM	65.9
[17], 1 nM	76.7
[18], 10 nM	67.9
[21], 0.3 nM	99.1
[21], 3 nM	61.4
[21], 10 nM	65.8
[22], 1 nM	56.2
[22], 100 nM	47.5
[22], 1000 nM	47.1
[23], 1 nM	65.5
[23], 100 nM	53.1
[23], 1000 nM	51.8
[24], 0.3 nM	80
[24], 3 nM	45.8
[24], 10 nM	34.5
[25], 1 nM	84.8
[25], 100 nM	48.4
[25], 1000 nM	43
[26], 1 nM	74
[26], 100 nM	62.8
[26], 1000 nM	87
[27], 1 nM	88.4
[27], 100 nM	56.7
[27], 1000 nM	75.3

Conditions	drug sensitivity score
[19]	21.3
[20]	20.8

CC/C(=C(\c1ccccc1)c1ccc(OCCN(C)C)cc1)c1ccccc1 [Tamoxifen]
Conditions	normalised viability [%]
[1], 10 nM	94.1
[2], 100 nM	95.2
[3], 10 nM	108
[4], 100 nM	91.7
[5], 10 nM	92
[6], 100 nM	106
[7], 100 nM	97.5
[8], 100 nM	93.7
[9], 10 nM	102
[10], 10 nM	257
[11], 100 nM	88.3
[12], 100 nM	90.7
[13], 100 nM	91
[14], 100 nM	92.5
[15], 100 nM	122
[16], 100 nM	112
[17], 10 nM	104
[18], 100 nM	126
[21], 3 nM	99.9
[21], 30 nM	95.7
[21], 100 nM	110
[22], 10 nM	89
[22], 1000 nM	87.7
[22], 10000 nM	54.1
[23], 10 nM	122
[23], 1000 nM	123
[23], 10000 nM	104
[24], 3 nM	89.5
[24], 30 nM	92.2
[24], 100 nM	93.4
[25], 10 nM	101
[25], 1000 nM	107
[25], 10000 nM	80.9
[26], 10 nM	93.1
[26], 1000 nM	94.6
[26], 10000 nM	115
[27], 10 nM	102
[27], 1000 nM	107
[27], 10000 nM	90

Conditions	drug sensitivity score
[19]	0
[20]	1.73

CCN(CC)CCOc1ccc(C(=C(Cl)c2ccccc2)c2ccccc2)cc1 [Clomifene]
Conditions	normalised viability [%]
[1], 10 nM	103
[2], 100 nM	103
[3], 10 nM	94
[4], 100 nM	95.7
[5], 10 nM	97.5
[6], 100 nM	94.8
[7], 100 nM	114
[8], 100 nM	100
[9], 10 nM	96.2
[10], 10 nM	103
[11], 100 nM	118
[12], 100 nM	93.4
[13], 100 nM	101
[14], 100 nM	100
[15], 100 nM	97.5
[16], 100 nM	116
[17], 10 nM	115
[18], 100 nM	88.5
[21], 3 nM	101
[21], 30 nM	98.4
[21], 100 nM	111
[22], 10 nM	102
[22], 1000 nM	106
[22], 10000 nM	28.3
[23], 10 nM	105
[23], 1000 nM	121
[23], 10000 nM	59.8
[24], 3 nM	95.6
[24], 30 nM	90.3
[24], 100 nM	98.9
[25], 10 nM	105
[25], 1000 nM	105
[25], 10000 nM	67.2
[26], 10 nM	98.8
[26], 1000 nM	93.8
[26], 10000 nM	14.1
[27], 10 nM	93.8
[27], 1000 nM	106
[27], 10000 nM	68.1

Conditions	drug sensitivity score
[19]	2.02
[20]	3.64

CN1CCN(c2nc(C3=C(c4c[nH]c5ccccc45)C(=O)NC3=O)c3ccccc3n2)CC1 [Sotrastaurin]
Conditions	normalised viability [%]
[1], 10 nM	95
[2], 100 nM	97.3
[3], 10 nM	116
[4], 100 nM	79.9
[5], 10 nM	88.2
[6], 100 nM	122
[7], 100 nM	96.3
[8], 100 nM	96.3
[9], 10 nM	104
[10], 10 nM	93.4
[11], 100 nM	86.4
[12], 100 nM	73
[13], 100 nM	99.4
[14], 100 nM	95
[15], 100 nM	96.3
[16], 100 nM	108
[17], 10 nM	89.3
[18], 100 nM	133
[21], 3 nM	98.6
[21], 30 nM	94
[21], 100 nM	115
[22], 10 nM	103
[22], 1000 nM	93.8
[22], 10000 nM	74
[23], 10 nM	98.7
[23], 1000 nM	98.4
[23], 10000 nM	87.2
[24], 3 nM	94.4
[24], 30 nM	91
[24], 100 nM	90.9
[25], 10 nM	95.6
[25], 1000 nM	103
[25], 10000 nM	73.1
[26], 10 nM	94.5
[26], 1000 nM	101
[26], 10000 nM	124
[27], 10 nM	121
[27], 1000 nM	108
[27], 10000 nM	101

Conditions	drug sensitivity score
[19]	0
[20]	0
